# Laboratory results as given in patent publication US5036008A, “Antitumor antibiotic BU-3285T” (Bristol-Myers Company, priority 1990, dated 1991).
# Like-named read-outs stand apart in the source and are kept apart here.
# Assays:
# [1] = tested on: HCT-116 (human colon carcinoma) cells; assay: In vitro cytotoxicity (Table 14); assay type: cell-based
# Method: (§2) B16-F10 (murine melanoma), HCT-116 (human colon carcinoma), A549 (human lung carcinoma) and A549/VP29 (an etoposide-resistant subline of A549) were grown in Eagle's MEM (Nissui) supplemented with FCS (fetal calf serum, 10%) and non-essential amino acids (B16-F10), or in McCoy's 5A medium (Gibco) with FCS (10%), essential and non-essential amino acids, vitamins and antibiotics (HCT-116 and both of A549) at 37° C. under a humidified atmosphere in a 5% CO2 incubator. Exponentially growing B16-F10, HCT-116 and A549 cells were harvested, counted and suspended in the culture medium at 1.5×10^4, 3×10^4 and 3×10^4 cells/ml, respectively. After planting 180 μl of cell suspension into wells of a 96-well microtiter plate on day 0, the test materials (20 μl) were added on day 1 and the plates were incubated for 72 hours. The cytotoxic activity was colorimetrically determined at 540 nm after staining viable cells with neutral red solution.
# [2] = tested on: B16-F10 (murine melanoma) cells; assay: In vitro cytotoxicity (Table 14); assay type: cell-based; conditions: Mus musculus
# Method: as §2
# A. flavus FA21436 = assay: In vitro antifungal activity, serial agar dilution; conditions: Aspergillus flavus, FA21436, 40 h, pH 7
# Method: (§3) In vitro antifungal activity was determined against various fungi by the serial agar dilution method. Sabouraud dextrose agar (pH 7.0) was used for the experiment. The inoculum size was adjusted to 10^6 CFU/ml. After incubation at 28° C. for 40 hours, the minimum inhibitory concentration (MIC) was examined.
# [3] = tested on: Trichophyton mentagrophytes D155; assay: In vitro antifungal activity, serial agar dilution; conditions: D155, 40 h, pH 7
# Method: as §3
# Candida albicans IAM4888 = assay: In vitro antifungal activity, serial agar dilution; conditions: IAM4888, 40 h, pH 7
# Method: as §3
# [4] = tested on: Cryptococcus neoformans D49; assay: In vitro antifungal activity, serial agar dilution; conditions: D49, 40 h, pH 7
# Method: as §3
# C. albicans A9540 = assay: In vitro antifungal activity, serial agar dilution; conditions: Candida albicans, A9540, 40 h, pH 7
# Method: as §3
# Mucor spinosus IF05317 = assay: In vitro antifungal activity, serial agar dilution; conditions: IF05317, 40 h, pH 7
# Method: as §3
# T. mentagrophytes #4329 = assay: In vitro antifungal activity, serial agar dilution; conditions: Trichophyton mentagrophytes, 40 h, pH 7
# Method: as §3
# [5] = tested on: Blastomyces dermatidis D40; assay: In vitro antifungal activity, serial agar dilution; conditions: D40, 40 h, pH 7
# Method: as §3
# Piricularia oryzae D91 = assay: microbe, parasite or virus in culture; assay type: cell-based; conditions: 40 h, pH 7
# [6] = tested on: Petriellidium boydii IF08078; assay: In vitro antifungal activity, serial agar dilution; conditions: Scedosporium boydii, IF08078, 40 h, pH 7
# Method: as §3
# [7] = tested on: Sporothrix schenckii IF08158; assay: microbe, parasite or virus in culture; conditions: IF08158, 40 h, pH 7
# Method: as §3
# [8] = tested on: Aspergillus fumigatus IAM2530; assay: In vitro antifungal activity, serial agar dilution; conditions: IAM2530, 40 h, pH 7
# Method: as §3
# A. fumigatus IAM2034 = assay: microbe, parasite or virus in culture; conditions: Aspergillus fumigatus, IAM2034, 40 h, pH 7
# Method: as §3
# C. neoformans IAM4514 = assay: In vitro antifungal activity, serial agar dilution; conditions: Cryptococcus neoformans, IAM4514, 40 h, pH 7
# Method: as §3
# [9] = tested on: Fusarium moniliforme A2284; assay: In vitro antifungal activity, serial agar dilution; conditions: Fusarium verticillioides, A2284, 40 h, pH 7
# Method: as §3
# P388 leukemia = assay: In vivo antitumor activity against P388 leukemia (Table 8); conditions: P388 leukemia in mice
# [10] = tested on: A549/VP29 (etoposide-resistant subline of A549) cells; assay: In vitro cytotoxicity (Table 14)
# Method: (§4) After planting 180 μl of cell suspension into wells of a 96-well microtiter plate on day 0, the test materials (20 μl) were added on day 1 and the plates were incubated for 72 hours. The cytotoxic activity was colorimetrically determined at 540 nm after staining viable cells with neutral red solution.
# Solubility = assay type: physicochemical
# fungi = assay: In vitro antifungal activity, overall statement; conditions: various fungi
# Method: as §3
# [11] = tested on: DNA biosynthesis in L1210 leukemia cells; assay: Inhibition of macromolecule biosynthesis, DNA (Table 15); assay type: cell-based, murine
# Method: (§1) Inhibitory effects of the above compounds on macromolecule (DNA, RNA and protein) biosynthesis were determined in cultured L1210 murine leukemia cells. The cells (5×10^5 cells/ml) were incubated with the test materials at 37° C. for 15 minutes and then further incubated for 60 minutes after the addition of labeled precursor, ^3 H-thymidine, ^14 C-uridine or ^3 H-leucine into the cultured mixture. After washing with chilled 5% trichloroacetic acid solution, the radioactivity incorporated into the acid-insoluble fraction of the cells was determined with a liquid scintillation counter.
# [12] = tested on: A549 (human lung carcinoma) cells; assay: In vitro cytotoxicity (Table 14); assay type: cell-based; conditions: A549, 72 hours, neutral red, read-out: IC50
# Method: as §2
# [13] = tested on: murine and human tumor cell lines; assay: In vitro cytotoxicity, overall statement; conditions: murine and human tumor cell lines
# Method: as §4
# [14] = tested on: RNA biosynthesis in L1210 leukemia cells; assay: Inhibition of macromolecule biosynthesis, RNA (Table 15); assay type: cell-based, murine; conditions: Mus musculus, labeled precursor, 15 min + 60 min, 37° C., read-out: IC50, RNA synthesis
# Method: as §1
# [15] = tested on: protein biosynthesis in L1210 leukemia cells; assay: Inhibition of macromolecule biosynthesis, protein (Table 15); assay type: cell-based, murine; conditions: Mus musculus, labeled precursor, 15 min + 60 min, 37° C., read-out: IC50, protein synthesis
# Method: as §1
smiles,measurement,setting,value
"COc1cccc2c1C(=O)c1c(O)c3c(c(O)c1C2=O)C[C@@](O)(C(=O)CO)C[C@@H]3O[C@H]1C[C@H](N)[C@H](O)[C@H](C)O1 [Adriamycin, reference compound]",IC50,"[1]; HCT-116, 72 h",0.3 µg/mL
same,IC50,"[2]; B16-F10, 72 h",0.03 µg/mL
C[C@@H]1[C@H](O)[C@@H](C)/C=C/C=C/C=C/C=C/C=C/C=C/C=C/[C@H](O[C@@H]2O[C@H](C)[C@@H](O)[C@H](N)[C@@H]2O)C[C@@H]2O[C@](O)(C[C@@H](O)C[C@@H](O)[C@H](O)CC[C@@H](O)C[C@@H](O)CC(=O)O[C@H]1C)C[C@H](O)[C@H]2C(=O)O [Amphotericin B],MIC,A. flavus FA21436,1.6 µg/mL
same,MIC,[3],6.3 µg/mL
same,MIC,Candida albicans IAM4888,1.6 µg/mL
same,MIC,[4],0.8 µg/mL
same,MIC,C. albicans A9540,1.6 µg/mL
same,MIC,Mucor spinosus IF05317,6.3 µg/mL
same,MIC,T. mentagrophytes #4329,6.3 µg/mL
same,MIC,[5],12.5 µg/mL
same,MIC,Piricularia oryzae D91,12.5 µg/mL
same,MIC,[6],> 100 µg/mL
same,MIC,[7],> 100 µg/mL
same,MIC,[8],3.1 µg/mL
same,MIC,A. fumigatus IAM2034,3.1 µg/mL
same,MIC,C. neoformans IAM4514,0.8 µg/mL
same,MIC,[9],3.1 µg/mL
CCCCC/C=C/C=C\C=C/C(O)C(C)C(O)C/C=C/C1OC(=O)C=CC1O (stereo not drawn) [BU-3285T desulfate],in vivo antitumor activity,P388 leukemia,not active
same,IC50,"[10]; A549/VP29, 72 hours, neutral red",15 µg/mL
same,cytotoxicity against resistant A549/VP29 compared with parent cell line,[10]; vs A549 parent,almost the same cytotoxicity
same,solubility in acetone,Solubility; acetone,soluble
same,solubility in carbon tetrachloride,Solubility; carbon tetrachloride,insoluble
same,solubility in dimethyl sulfoxide,Solubility; dimethyl sulfoxide,soluble
same,solubility in ethanol,Solubility; ethanol,soluble
same,solubility in methanol,Solubility; methanol,soluble
same,solubility in n-hexane,Solubility; n-hexane,insoluble
same,solubility in water,Solubility; water,slightly soluble
same,antifungal activity in vitro,fungi,no activity against fungi in vitro
same,IC50,"[11]; Mus musculus, L1210, labeled precursor, 15 min + 60 min, 37° C., read-out: IC50, DNA synthesis",> 100 µg/mL
same,inhibitory effect on DNA synthesis,"[11]; at 100 μg/ml, the highest concentration tested",no significant inhibitory effect
same,IC50,"[1]; HCT-116, 72 hours, neutral red, read-out: IC50",5.5 µg/mL
same,IC50,[12],13 µg/mL
same,cytotoxicity in vitro,[13],quite active
same,IC50,[14],6.1 µg/mL
same,IC50,"[2]; B16-F10, 72 hours, neutral red, read-out: IC50",14 µg/mL
same,IC50,[15],8.1 µg/mL
